In patent US8841310B2, “Combinations of a pyrimidine containing NNRTI with RT inhibitors” (Janssen R & D Ireland, priority 2003, dated 2014):
In brackets after ≈: the same amount, converted by molar mass. Several values for one entry are separate records, joined by “and”; a condition that tells them apart may be missing. Identical values can stand only once. Like-named read-outs stand apart in the source and are kept apart here.

What was measured:
[1] = tested on: monotropic HIV strain Ba-L; assay: MO-DC/CD4(+) T cell co-culture model of sexual HIV transmission; format: cell-based; conditions: Human immunodeficiency virus 1, BAL, T-cell, 336 h, read-out: EC50 (concentration suppressing 50% of viral replication)
Excerpt: Immature monocyte derived dendritic cells (immMO-DC) represent a good model for interstitial dendritic cells, which are early targets during sexual HIV transmission and important initiators of the immune response. These immMO-DC were used in “in vitro” models to test the prevention of HIV infection via sexual intercourse or related intimate contact between partners.
For instance, in one model, monocyte-derived dendritic cells (MO-DC) were infected for 2-hours with the monotropic HIV strain Ba-L at a multiplicity of infection (MOI) of 10^−3. After infection, cells were washed 6 times and resuspended in 10% BCS at 400.000 cells/ml. Autologous CD4(+) T cells were purified out of the lymphocyte fraction of the same elutration as the MO-DC and used at a concentration of 2×10^6 cells/ml ((ratio MO-DC/CD4(+) T: 1/5).
A serial dilution of a compound of formula (I) (test compound) was added to the MO-DC/CD4(+) T cell co-cultures. Each experiment was done in 96-well plates, in which each cup contained 50 μl of MO-DC, 50 μl of CD4(+) T cells and 100 μl of test compound. Half of the culture medium, with test compound, was refreshed twice weekly. Supernatants were analysed in ELISA after 14 days of culture. To determine antiviral activity, the test compound concentration able to suppress 50% of the viral replication at the end of the primary cultures (EC50) was measured.

[2] = Phase I single oral dose trials: safety, tolerability, pharmacokinetics; format: in vivo, human; conditions: for Cmax / half-life / Tmax: human, plasma; for half-life / Tmax: male
Protocol: Oral doses of 12.5, 25, and 50 mg were formulated in PEG 400 and taken with a standard meal.
There was a time interval of about 14 days between each dosing session

wild type HIV-1 = assay: Development of resistance in vitro, MT4 cells, high multiplicity of infection; format: cell-based; conditions: wild type HIV-1, >1 infectious virus per cell, all tested concentrations, total 30 days
Excerpt: (§1) Emerging virus was collected for pheno- and genotyping. Cultures without evidence of virus replication were further sub-cultivated in the presence of the same concentration of inhibitor for a total duration of 30 days (10 passages).

[3] = Cardiovascular and pulmonary safety in vitro; conditions: concentrations covering or exceeding the anti-viral concentration in vitro
HIV-1 single mutant 103N = assay: Development of resistance in vitro, starting from single mutant; format: cell-based; conditions: starting from 103N
Excerpt: as §1

[4] = tested on: HIV-1 single mutant Y181C; assay: as above; format: cell-based
Excerpt: as §1

HIV-1 wild type = assay: MT-4 cell-based antiviral assay (viral cytopathicity, tetrazolium); conditions: Human immunodeficiency virus 1, MT4, wild type virus
Protocol: (§2) Compound E-TMC278 was tested in a cell-based assay, using natural host cells of HIV. MT-4 cells (a cell line of human T cells) were infected with HIV-1 (wild type or mutants) and exposed to different concentrations of antiviral compound in the presence of 10% fetal calf serum. Cytotoxicity was determined in parallel with the antiviral activity so that the selectivity of the antiviral effect could be assessed. Active compounds have to penetrate the cell membrane in order to interfere with replication steps inside the cell.
(§3) After four days of incubation at 37° C., the viability of the HIV and mock-infected cells was assessed by an automated tetrazolium-based calorimetric assay. This method enabled the calculation of both the 50% inhibitory concentration for inhibition of viral cytopathicity (IC50), the IC90, and the 50% cytotoxic concentration (CC50). The ratio CC50/IC50, also called the selectivity index, is an indication of the specificity of the antiviral effect. Tested HIV strains included: Wild type (wt) HIV-1; a panel of single and double mutants, obtained by site-directed mutagenesis (SDM), and a panel of clinical isolates, selected for resistance against NNRTIs.

HIV-1 mutant 106A = assay: MT-4 cell-based antiviral assay, SDM mutant; conditions: Human immunodeficiency virus 1, MT4
Protocol: as §2, §3
(§4) A limited panel of HIV-1 mutants was constructed using site-directed mutagenesis (SDM) and homologous recombination techniques. […] Nevirapine (NVP) and efavirenz (EFV) were included as controls.

HIV-1 mutant 181C = assay: MT-4 cell-based antiviral assay, SDM mutant
Protocol: as §2, §3, §4

HIV-1 mutant 190S = assay: MT-4 cell-based antiviral assay, SDM mutant; conditions: Human immunodeficiency virus 1, MT4
Protocol: as §2, §3, §4

HIV-1 mutant 227L = assay: MT-4 cell-based antiviral assay, SDM mutant; conditions: Human immunodeficiency virus 1, MT4
Protocol: as §2, §3, §4

HIV-1 mutant 236L = assay: MT-4 cell-based antiviral assay, SDM mutant; conditions: Human immunodeficiency virus 1, MT4
Protocol: as §2, §3, §4

HIV-1 mutant 188L = assay: MT-4 cell-based antiviral assay, SDM mutant
Protocol: as §2, §3, §4

HIV-1 mutant 103N = assay: MT-4 cell-based antiviral assay, SDM mutant
Protocol: as §2, §3, §4

[5] = tested on: HIV-1 double mutant 227L + 106A; assay: MT-4 cell-based antiviral assay, SDM mutant
Protocol: as §2, §3, §4

HIV-1 mutant 101E = assay: MT-4 cell-based antiviral assay, SDM mutant; conditions: Human immunodeficiency virus 1, MT4
Protocol: as §2, §3, §4

HIV-1 mutant 190A = assay: MT-4 cell-based antiviral assay, SDM mutant; conditions: Human immunodeficiency virus 1, MT4
Protocol: as §2, §3, §4

HIV-1 mutant 179D = assay: MT-4 cell-based antiviral assay, SDM mutant; conditions: Human immunodeficiency virus 1, MT4
Protocol: as §2, §3, §4

HIV-1 mutant 234I = assay: MT-4 cell-based antiviral assay, SDM mutant; conditions: Human immunodeficiency virus 1, MT4
Protocol: as §2, §3, §4

[6] = tested on: HIV-1 double mutant 103N + 181C; assay: MT-4 cell-based antiviral assay, SDM mutant
Protocol: as §2, §3, §4

HIV-1 mutant 188C = assay: MT-4 cell-based antiviral assay, SDM mutant; conditions: Human immunodeficiency virus 1, MT4
Protocol: as §2, §3, §4

[7] = Cardiovascular and pulmonary safety in vivo; conditions: plasma levels covering and exceeding the targeted plasma levels in man
[8] = tested on: HIV-1 double resistant mutant K103N+Y181C; assay: Development of resistance in vitro, starting from double mutant; format: cell-based
Excerpt: as §1

[9] = single oral doses, healthy volunteers
[10] = Human immunodeficiency virus 1, MT4
[11] = Human immunodeficiency virus 1, MT4, read-out: IC50 value

Cc1cc(/C=C/C#N)cc(C)c1Nc1ccnc(Nc2ccc(C#N)cc2)n1 [E-TMC278, (E)-4-[[4-[[4-(2-cyanoethenyl)-2,6-dimethylphenyl]-amino]-2-pyrimidinyl]-amino]-benzonitrile]
EC50 [1]: 550 pM
correlation coefficient for AUC0-48 hr (dose proportionality) ([2]; 12.5-200 mg): 0.9952
correlation coefficient for the 5 Cmax datapoints (dose proportionality) ([2]; 12.5-200 mg): 0.9897
Cmax ([2]; single oral dose 25 mg in PEG 400 with standard meal, healthy male volunteers): 149 ± 32 ng/mL
Cmax ([2]; single oral dose 50 mg in PEG 400 with standard meal, healthy male volunteers): 267 ± 27 ng/mL
Cmax ([2]; single oral dose 100 mg, healthy male subjects): 482 ± 121 ng/mL
Cmax ([2]; single oral dose 200 mg, healthy male subjects): 807 ± 207 ng/mL
half-life ([2]; across single oral doses, read-out: Half-life of plasma concentrations): 37 to 39 h
Tmax ([2]; single oral dose 12.5 mg): 4 h
half-life ([2]; single oral dose 12.5 mg, read-out: T1/2 (converted)): 37.1 h
Tmax ([2]; single oral dose 25 mg): 4 ± 1.3 h
half-life ([2]; single oral dose 25 mg, read-out: T1/2 (converted)): 38.7 h
Tmax ([2]; single oral dose 50 mg): 4 ± 1.3 h
half-life ([2]; single oral dose 50 mg, read-out: T1/2 (converted)): 45 ± 9 h
Tmax ([2]; single oral dose 100 mg): 4.3 ± 0.8 h
half-life ([2]; single oral dose 100 mg, read-out: T1/2 (converted)): 55 ± 18 h
Tmax ([2]; single oral dose 200 mg): 4.3 ± 0.8 h
Adverse effects [2, 9]: No relevant adverse effects
Tolerability [2, 9]: well tolerated
time to emergence of resistant virus (wild type HIV-1): > 30 days
effect on cardiovascular and pulmonary parameters in vitro [3]: little or no effect
virus breakthrough (HIV-1 single mutant 103N; at 10 nM): did occur
virus breakthrough (HIV-1 single mutant 103N; at 40 and 200 nM): did not occur
virus breakthrough ([4]; at 10 nM): did occur
virus breakthrough ([4]; at 40 and 200 nM): did not occur
IC90 (HIV-1 wild type): 1.3 nM and 0.00048 µg/mL
IC50 (HIV-1 wild type; read-out: IC50): 0.15 ng/mL (≈ 0.409 nM)
IC50 (HIV-1 mutant 106A): 200 pM
IC50 (HIV-1 mutant 181C; [10]): 1300 pM
IC50 (HIV-1 mutant 181C; [11]): 1300 pM
IC50 (HIV-1 mutant 190S): 100 pM
IC50 (HIV-1 mutant 227L): 300 pM
IC50 (HIV-1 mutant 236L): 300 pM
IC50 (HIV-1 mutant 188L; [10]): 2000 pM
IC50 (HIV-1 mutant 188L; [11]): 2000 pM
IC50 (HIV-1 mutant 103N; [10]): 300 pM
IC50 (HIV-1 mutant 103N; [11]): 300 pM
IC50 ([5]; Human immunodeficiency virus 1, MT4, 96 h): 1000 pM
IC50 [5, 11]: 1000 pM
IC50 (HIV-1 mutant 101E): 1600 pM
IC50 (HIV-1 mutant 190A): 300 pM
IC50 (HIV-1 mutant 179D): 600 pM
IC50 (HIV-1 mutant 234I): 300 pM
IC50 [6, 10]: 800 pM
IC50 [6, 11]: 1000 pM
IC50 (HIV-1 mutant 188C): 100 pM
effect on cardiovascular and pulmonary parameters in vivo [7]: little or no effect
emergence of resistance [8]: resistance did emerge at all tested concentrations
